For this assay, the target named is T1, Burkholderia pseudomallei L-asparaginase (Burkholderia pseudomallei, UniProt Q63UZ6).
T1 construct: gene ansB
Conditions: 10 mM substrate, 50 mM Tris-HCl pH 8.6, 37 °C, 10 min.

Here are results for 1 compound from PMC9628870 (Journal of Microbiology and Biotechnology, 2022).

T1 sequence (Q63UZ6 1-347 limits assumed): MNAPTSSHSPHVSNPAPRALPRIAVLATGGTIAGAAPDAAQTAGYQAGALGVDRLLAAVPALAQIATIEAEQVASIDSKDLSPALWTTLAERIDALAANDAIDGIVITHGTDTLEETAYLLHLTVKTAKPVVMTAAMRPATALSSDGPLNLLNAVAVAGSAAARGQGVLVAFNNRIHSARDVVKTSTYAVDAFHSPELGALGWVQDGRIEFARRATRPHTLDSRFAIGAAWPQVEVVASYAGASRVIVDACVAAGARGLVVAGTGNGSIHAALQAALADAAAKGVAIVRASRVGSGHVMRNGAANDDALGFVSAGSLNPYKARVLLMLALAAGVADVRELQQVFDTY

Regarding `NC(=O)C[C@H](N)C(=O)O` [L-asparagine], the “ammonia release by Nessler's reagent” value is “the purified recombinant enzyme displayed the maximum activity and specificity towards the reaction substrate L-asparagine”.
